Counter-ions that a name gives are not always drawn.
Biological target: T1, MMP9 (Gelatinase-B) (Homo sapiens, UniProt P14780)
T1 construct: endogenous in cells; host or cells: THP1 human monocytic leukemia cells, TPA-stimulated; purified from culture medium
Assay: Assay of MMP9 (fluorogenic peptide)
Format: biochemical
Details: mean ± SEM of three independent experiments
Experimental: MMP9 is prepared form the culture medium of THP1 human monocytic leukemia cells treated with TPA. THP1 cells are maintained in a culture of DMEM/F-12 with 10% FCS and stimulated to produce pro-MMP9 with TPA (1 nM) in serum-free medium for 48 h. All purification procedures are carried out at 4° C. The 1 liters of culture medium is concentrated to 100 ml by Centricon (Amicon) and applied to a column (1×8 cm) of gelatin-sepharose (Pharmacia) equilibrated with 50 mM Tris-Cl (pH=8.0), 300 mM NaCl. The fraction containing pro-MMP-9 is eluted with 10% DMSO in 50 mM Tris-Cl (pH=8.0), 300 mM NaCl, then dialyzed against 50 mM Tris-Cl (pH 7.5), 150 mM NaCl. The fraction is concentrated by Centricon and subjected to column chromatography of Sephadex G200 (2×20 cm) equilibrated with 50 mM Tris-Cl (pH=7.5) containing 150 mM NaCl. The purified Pro-MMP9 is stored at −80° C. as a stock and the necessary amount of pro-form is used for activation. Pro-MMP9 is activated with 1 mM aminophenyl mercury acetate (APMA, ICN Pharmaceuticals) in 50 mM Tris-Cl (pH=7.5) containing 150 mM NaCl, 10 mM CaCl2 and 0.05% Brij-35 (MMP Assay Buffer) for 18 h at 37° C., and the APMA is removed by extensive dialysis against MMP Assay Buffer. […]
The activated MMP-9 (82 kDa) is then used to screen compounds. […] The increase of fluorescence is monitored at 460 nm with excitation at 355 nm. […]

T1 sequence (P14780 107-707 limits assumed): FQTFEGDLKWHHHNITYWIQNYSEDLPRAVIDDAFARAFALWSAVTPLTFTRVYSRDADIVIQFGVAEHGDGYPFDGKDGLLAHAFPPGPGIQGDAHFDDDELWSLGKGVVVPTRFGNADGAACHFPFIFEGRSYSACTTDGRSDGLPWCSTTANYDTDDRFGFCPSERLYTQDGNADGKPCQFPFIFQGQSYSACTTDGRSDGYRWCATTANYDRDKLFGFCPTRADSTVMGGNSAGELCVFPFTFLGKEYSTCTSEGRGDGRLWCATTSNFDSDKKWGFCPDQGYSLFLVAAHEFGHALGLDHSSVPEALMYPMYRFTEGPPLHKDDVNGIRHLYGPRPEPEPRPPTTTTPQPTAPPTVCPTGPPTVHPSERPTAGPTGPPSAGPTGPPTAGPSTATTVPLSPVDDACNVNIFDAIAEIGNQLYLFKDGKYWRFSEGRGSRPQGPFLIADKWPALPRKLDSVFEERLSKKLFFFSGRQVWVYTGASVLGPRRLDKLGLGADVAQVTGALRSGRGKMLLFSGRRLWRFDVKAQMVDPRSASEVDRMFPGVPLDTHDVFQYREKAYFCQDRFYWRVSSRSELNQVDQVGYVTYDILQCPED

- IC50: 2.57 ± 0.27 nM
Compound: CN(C)c1ccc(CN(CC(=O)NO)S(=O)(=O)c2ccc(OCC3CC3)cc2)cc1 [Example 2, 2-[(4-Cyclopropylmethoxy-benzenesulfonyl)-(4-dimethylamino-benzyl-amino]-N-hydroxy-acetamide HCl salt]

Source: patent publication US7659293B2, “α-Amino-N-hydroxy-acetamide derivatives” (Novartis AG, priority 2001, dated 2010)
